“And” between values parts separate entries of the source, which are not always exact repeats. Equal entries are not always repeated. Where two headings read alike, the source gives them in different places.
What was measured:
[1] = tested on: large-conductance Ca^2+-activated K^+ channels (BK channels); assay: Slow blockade: long shut events and burst durations in single BK channels; type: biochemical, goldfish, Carassius auratus
BK channels [2] = conditions: cited from earlier work
[3] = tested on: large-conductance Ca^2+-activated K^+ channels (BK channels); assay: Steady state activation of BK channels; type: biochemical, goldfish, Carassius auratus; conditions: for Po: 20 μM [Sr^2+]i or 5 μM [Ca^2+]i (equipotent); for decrease in V0.5 produced by a 10-fold increase in concentration: slopes of concentration–V0.5 plots
[4] = tested on: large-conductance Ca^2+-activated K^+ channels (BK channels); type: biochemical, goldfish, Carassius auratus; conditions: voltage steps −50 to +50 mV; 20 μM Sr^2+ or 5 μM Ca^2+
BK channels [5] = conditions: T-tubule membrane in lipid bilayers; ref Oberhauser et al., 1988; cited from earlier work
[6] = tested on: large-conductance Ca^2+-activated K^+ channels (BK channels); type: biochemical, goldfish, Carassius auratus
BK channels [7] = conditions: cultured neurons from rat hypothalamus and brain stem; ref Kang et al., 1994; cited from earlier work

## [Ba+2] [Ba^2+, barium ion]
[1]; 20 μM [Ba^2+]i, 100 μM [Ca^2+]i, 50 mV, area 162 events
  time constant of long shut events, second exponential: 359 ms
[1]; 20 μM [Ba^2+]i, 100 μM [Ca^2+]i, 50 mV, area 372 events
  time constant of long shut events, first exponential: 18.8 ms
BK channels [2]; ref Benham et al., 1985
  depth of the binding site within the membrane voltage field (Ba^2+ blockade): 0.96
BK channels [2]; ref Diaz et al., 1996
  depth of the binding site within the membrane voltage field (Ba^2+ blockade): 0.92
BK channels [2]; ref Neyton and Miller, 1988
  depth of the binding site within the membrane voltage field (Ba^2+ blockade): 0.5–0.7
BK channels [2]; ref Vergara and Latorre, 1983
  depth of the binding site within the membrane voltage field (Ba^2+ blockade): 0.8

## [Ca+2].[Cl-].[Cl-] [Ca^2+]
[3]; 50 mV
  Hill coefficient for activation (slope of Hill plot): 2.7
  Po: 0.315
[3]; eight membrane patches
  decrease in V0.5 produced by a 10-fold increase in concentration: ~35 mV
[4]
  activation time constant: 1.14 ms
  deactivation time constant: 0.54 ms
BK channels [5]
  potency of fast blockade relative to Mg^2+ or Sr^2+: > 10 ×
[6]; 5 μM [Ca^2+]i, 50 mV (original amplitude)
  single-channel current amplitude: 13.2 pA
[6]; 5 μM [Ca^2+]i, 100 mV (original amplitude)
  single-channel current amplitude: 26.1 pA
BK channels [7]
  potency in reducing the outward current amplitude relative to internal Mg^2+: ~1,000 ×

## [Sr+2] [Sr^2+, Strontium]
[1]
  duration of long shut events (slow blockade): 10 to 200 ms
[1]; 500 μM [Sr^2+]i at 30 mV
  probability for the open state during bursts (P[open|burst]): 0.86
[1]; 0.5 mM [Sr^2+]i, 30 mV
  time constant of burst durations (τb): 1,310 ms
  time constant of long shut events (τl−s): 75.1 ms
[1]; 0.5 mM [Sr^2+]i, 50 mV
  time constant of burst durations (τb): 631 ms
  time constant of long shut events (τl−s): 44.7 ms
[1]; 2 mM [Sr^2+]i, 30 mV
  time constant of burst durations (τb): 520 ms
  time constant of long shut events (τl−s): 41.3 ms
[1]; 2 mM [Sr^2+]i, 50 mV
  time constant of burst durations (τb): 195 ms
  time constant of long shut events (τl−s): 41.0 ms
[1]; 10 mM Sr^2+, 50 mV, threshold time for long shut events 3.32 ms
  time constant of burst durations (τb): 51.0 ms
[1]; 10 mM Sr^2+, 50 mV, threshold time for long shut events 15.8 ms
  time constant of burst durations (τb): 94.0 ms
[1]; 10 mM [Sr^2+]i at 50 mV
  probability for the open state during bursts (P[open|burst]): 0.94
[1]; 10 mM [Sr^2+]i, 30 mV
  time constant of burst durations (τb): 163 ms
  time constant of long shut events (τl−s): 44.6 ms
[1]; 10 mM [Sr^2+]i, 50 mV
  time constant of long shut events (τl−s): 34.4 ms
[1]; 10 mM [Sr^2+]i, 50 mV (threshold time for long shut events 6.64 ms)
  time constant of burst durations (τb): 63.2 ms
[1]; 10 mV, square patch (Fig. 9 C)
  τb: 425 ms
[1]; 10 mV, triangle patch
  slope of log(n 1−s/n s) versus log([Sr^2+]i): 0.95
  slope of log(τb) versus log([Sr^2+]i): −1.23
  slope of log(τl−s) versus log([Sr^2+]i): −0.15
[1]; 30 mV, circle patch
  slope of log(n 1−s/n s) versus log([Sr^2+]i): 0.71
  slope of log(τb) versus log([Sr^2+]i): −0.74
  slope of log(τl−s) versus log([Sr^2+]i): −0.094
[1]; 30 mV, triangle patch
  slope of log(n 1−s/n s) versus log([Sr^2+]i): 1.08
  slope of log(τb) versus log([Sr^2+]i): −0.78
  slope of log(τl−s) versus log([Sr^2+]i): 0.01
[1]; 50 mV, circle patch
  slope of log(n 1−s/n s) versus log([Sr^2+]i): 0.92
  slope of log(τb) versus log([Sr^2+]i): −0.74
  slope of log(τl−s) versus log([Sr^2+]i): −0.11
[1]; one value per experiment
  zd for slow blockade (Woodhull equation, Eq. 7): 0.95 and 1.84
[1]; square patch
  slope of log(n 1−s/n s) versus log([Sr^2+]i): 1.18
  slope of log(τb) versus log([Sr^2+]i): −1.00
  slope of log(τl−s) versus log([Sr^2+]i): −0.05
[1]; three experiments
  slopes of log(τb) versus log([Sr^2+]i) fitting lines: −0.74 to −1.23
  slopes of log(τl−s) versus log([Sr^2+]i) fitting lines: −0.15–0.01
[3]; 5 μM [Sr^2+]i
  half-activation voltage V0.5 (Boltzmann distribution): 72 mV
  n (equivalent number of gating charges, Boltzmann distribution): 1.6
[3]; 20 μM [Sr^2+]i
  half-activation voltage V0.5 (Boltzmann distribution): 39 mV
  n (equivalent number of gating charges, Boltzmann distribution): 1.4
[3]; 200 μM [Sr^2+]i
  half-activation voltage V0.5 (Boltzmann distribution): 1 mV
  n (equivalent number of gating charges, Boltzmann distribution): 1.3
[3]; 1,000 μM [Sr^2+]i
  half-activation voltage V0.5 (Boltzmann distribution): −22 mV
  n (equivalent number of gating charges, Boltzmann distribution): 1.3
[3]; 2nd of +50 to −50 mV series (40 mV)
  Hill coefficient for activation (slope of Hill plot): 1.3
[3]; 3rd of +50 to −50 mV series (30 mV)
  Hill coefficient for activation (slope of Hill plot): 1.2
[3]; 4th of +50 to −50 mV series (20 mV)
  Hill coefficient for activation (slope of Hill plot): 1.0
[3]; 5th of +50 to −50 mV series (10 mV)
  Hill coefficient for activation (slope of Hill plot): 0.83
[3]; 6th of +50 to −50 mV series (−10 mV)
  Hill coefficient for activation (slope of Hill plot): 0.69
[3]; 7th of +50 to −50 mV series (−20 mV)
  Hill coefficient for activation (slope of Hill plot): 0.70
[3]; 8th of +50 to −50 mV series (−30 mV)
  Hill coefficient for activation (slope of Hill plot): 0.79
[3]; 9th of +50 to −50 mV series (−40 mV)
  Hill coefficient for activation (slope of Hill plot): 0.78
[3]; 10th of +50 to −50 mV series (−50 mV)
  Hill coefficient for activation (slope of Hill plot): 0.72
[3]; 50 mV
  Hill coefficient for activation (slope of Hill plot): 1.6
  Po: 0.309
[3]; between −10 and −50 mV
  Hill coefficient for activation: ~0.7
[3]; from concentration–V0.5 plots, eight membrane patches
  potency in activating BK channels relative to Ca^2+: approximately one-fourth
[3]; eight membrane patches
  decrease in V0.5 produced by a 10-fold increase in concentration: ~25 mV
[4]
  activation time constant: 1.22 ms
  deactivation time constant: 0.61 ms
[6]; 0.1 mM [Sr^2+]i, 50 mV
  single-channel current amplitude: 12.3 pA
[6]; 0.1 mM [Sr^2+]i, 100 mV
  single-channel current amplitude: 23.7 pA
[6]; 1.0 mM [Sr^2+]i, 50 mV
  single-channel current amplitude: 10.9 pA
[6]; 1.0 mM [Sr^2+]i, 100 mV
  single-channel current amplitude: 19.7 pA
[6]; 10 mM [Sr^2+]i, 50 mV
  single-channel current amplitude: 8.0 pA
[6]; 10 mM [Sr^2+]i, 100 mV
  single-channel current amplitude: 9.8 pA
[6]; 1st of 100–30 mV series (100 mV)
  Hill coefficient for amplitude reduction (slope of Hill plot): 0.75
[6]; 2nd of 100–30 mV series (90 mV)
  Hill coefficient for amplitude reduction (slope of Hill plot): 0.73
[6]; 3rd of 100–30 mV series (80 mV)
  Hill coefficient for amplitude reduction (slope of Hill plot): 0.75
[6]; 4th of 100–30 mV series (70 mV)
  Hill coefficient for amplitude reduction (slope of Hill plot): 0.70
[6]; 5th of 100–30 mV series (60 mV)
  Hill coefficient for amplitude reduction (slope of Hill plot): 0.66
[6]; 6th of 100–30 mV series (50 mV)
  Hill coefficient for amplitude reduction (slope of Hill plot): 0.62
[6]; 7th of 100–30 mV series (40 mV)
  Hill coefficient for amplitude reduction (slope of Hill plot): 0.67
[6]; 8th of 100–30 mV series (30 mV)
  Hill coefficient for amplitude reduction (slope of Hill plot): 0.64
[6]; all voltages (30–100 mV), [Sr^2+]i 0.5 mM or higher
  Hill coefficients for amplitude reduction: 0.62–0.75
[6]; concentration and voltage dependent
  internal concentration producing fast and slow blockade: > 100 µM
[6]; no shift in the reversal voltage in the current–voltage relation
  permeation of the channel: could scarcely permeate the channel

— paper PMC2222763 (The Journal of General Physiology, 1998)
